Changes are numbered by the printed parent chain.
Key:
[1] = biological target: T1, LNCaP type mutant androgen receptor (AR) (Homo sapiens, UniProt P10275, T878A); test: AR-binding inhibition test (LNCaP type); conditions: read-out: Inhibition rate (%) at 100 nM LNCaP type
T1 sequence (P10275 1-920 T878A): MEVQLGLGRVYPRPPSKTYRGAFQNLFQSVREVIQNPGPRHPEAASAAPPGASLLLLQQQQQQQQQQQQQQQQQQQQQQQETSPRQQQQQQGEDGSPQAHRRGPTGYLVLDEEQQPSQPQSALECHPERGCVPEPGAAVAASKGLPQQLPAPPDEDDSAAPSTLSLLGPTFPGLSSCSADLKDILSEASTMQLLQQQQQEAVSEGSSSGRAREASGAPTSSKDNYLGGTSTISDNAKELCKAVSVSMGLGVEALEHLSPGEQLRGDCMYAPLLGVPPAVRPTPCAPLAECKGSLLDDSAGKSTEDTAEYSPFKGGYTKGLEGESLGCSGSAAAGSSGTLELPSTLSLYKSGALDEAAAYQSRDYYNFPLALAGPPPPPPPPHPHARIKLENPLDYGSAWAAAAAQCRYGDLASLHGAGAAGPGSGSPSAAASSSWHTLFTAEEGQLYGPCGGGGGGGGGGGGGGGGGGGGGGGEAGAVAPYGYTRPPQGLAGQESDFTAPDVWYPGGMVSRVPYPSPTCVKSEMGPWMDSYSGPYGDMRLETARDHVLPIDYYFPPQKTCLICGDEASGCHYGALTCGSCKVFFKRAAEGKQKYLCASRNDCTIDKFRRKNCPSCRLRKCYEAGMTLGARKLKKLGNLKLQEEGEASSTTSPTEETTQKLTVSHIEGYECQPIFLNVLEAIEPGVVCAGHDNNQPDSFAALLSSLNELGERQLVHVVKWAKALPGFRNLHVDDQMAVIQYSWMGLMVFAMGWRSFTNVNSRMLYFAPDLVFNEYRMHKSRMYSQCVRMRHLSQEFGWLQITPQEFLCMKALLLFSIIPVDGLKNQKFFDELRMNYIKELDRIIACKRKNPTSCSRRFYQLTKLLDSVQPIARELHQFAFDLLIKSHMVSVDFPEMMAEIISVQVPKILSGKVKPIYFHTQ

[2] = test system: Human prostate cancer cell strain LNCaP-FGC; test: cells; type: cell-based; conditions: 72 h, read-out: Promotion rate (%) on PSA production at 100 nM
[3] = biological target: T2, wild type androgen receptor (AR) (Homo sapiens, UniProt P10275); test: AR-binding inhibition test (wild type); conditions: read-out: Inhibition rate (%) at 100 nM Wild type
T2 sequence (P10275 1-920): T1 sequence (P10275 1-920 T878A) with A878T

Row | SMILES | inhibition at 0.1 µM [1] | melting point | activation at 0.1 µM [2] | inhibition at 0.1 µM [3]
1 | C[C@H]1[C@H](O)CCN1c1ccc(C#N)c2sccc12 [Compound 115, 4-[(2S,3R)-3-hydroxy-2-methyl-1-pyrrolidinyl]-1-benzothiophene-7-carbonitrile] | 97% | 145 to 146 °C | 76% | 93%
2 | N#Cc1ccc(N2CCC(CO)CC2)c2ccccc12 [Compound 30, 4-[4-(hydroxymethyl)-1-piperidinyl]-1-naphthonitrile] | 113% | 135 to 136 °C | 100% | 105%
3 | N#Cc1ccc(N2CCC(CCO)CC2)c2ccccc12 [Compound 78, 4-[4-(2-hydroxyethyl)-1-piperidinyl]-1-naphthonitrile] | 97% | 128 to 129 °C | 89% | 92%
4 | N#Cc1ccc(N2CCSCC2)c2ccccc12 [Compound 8, 4-(4-thiomorpholinyl)-1-naphthonitrile] | 96% | 130 to 131 °C | 71% | 92%
5 | N#Cc1ccc(N2CCC(CCO)C2)c2ccsc12 (stereo not drawn) [Compound 101, 4-[3-(2-hydroxyethyl)-1-pyrrolidinyl]-1-benzothiophene-7-carbonitrile] | 97% | 109 to 111 °C | 86% | 93%
6 | C[C@H]1C[C@@H](O)CN1c1ccc(C#N)c2sccc12 [Compound 109, 4-[(2S,4R)-4-hydroxy-2-methyl-1-pyrrolidinyl]-1-benzothiophene-7-carbonitrile] | 99% | 102 to 103 °C | 86% | 98%

Reference: patent US7649001B2
